Source: patent US20210401916A1, “COMPOSITION FOR PREVENTION AND TREATMENT OF MUSCULAR DISEASES OR FOR IMPROVEMENT OF MUSCLE FUNCTION CONTAINING 3,5-DICAFFEOYLQUINIC ACID OR CHRYSANTHEMUM EXTRACT” (Industry-Academic Cooperation Foundation, Yonsei University, priority 2016, published 2021)

Legend:
Type in all cases: cell-based
PGC-1α = PGC-1α luciferase reporter (pTA-Luc-PGC-1α plasmid) in transfected COS7 cells; settings: treated at 5, 10, 20, 40 or 60 μg/mL, **p<0.01, FIG. 11
Description: To confirm an effect of increasing an expression level of PGC-1α by treatment of COS7 cells with a Chrysanthemum extract, COS7 cells (ATCC) were transfected with a pTA-Luc-PGC-1α plasmid (Addgene) by the same method as described in Experimental Example 1-(1). Here, 10%, 30%, 50%, 70% and 90% ethanol extracts of Chrysanthemum, which were prepared in Example 1-(2), and the hot water extract of Chrysanthemum, which was prepared in Example 1-(5), were treated at 10 μg/mL.
To confirm an effect of increasing an expression level of PGC-1α by treatment of […] (ATCC) with the 95% ethanol extract of Chrysanthemum, the 95% ethanol extract of Chrysanthemum, prepared in Example 1-(2), was treated at 10 or 40 μg/mL by the same method as described in Experimental Example 1-(2).
(§1) To confirm an effect of increasing an expression level of PGC-1α by treatment of COS7 cells (ATCC) with 3,5-dicaffeoylquinic acid, the 3,5-dicaffeoylquinic acid obtained in Example 2 was treated at 5, 10, 20, 40 or 60 μg/mL by the same method as described in Experimental Example 1-(2), and the result is shown in FIG. 11.

SIRT1 = SIRT1 luciferase reporter (pTA-Luc-SIRT1 plasmid) in transfected COS7 cells; settings: treated at 20, 40 or 60 μg/mL (5 to 60 μg/mL tested), **p<0.01, FIG. 10
Description: To confirm an effect of increasing an expression level of SIRT1 by treatment of COS7 cells (ATCC) with a Chrysanthemum extract, COS7 cells (ATCC) were transfected with a pTA-Luc-SIRT1 plasmid (Addgene) by the same method as described in Experimental Example 1-(1). Here, the 95% ethanol extract of Chrysanthemum prepared in Example 1-(2) was treated at 20, 30 or 40 μg/mL, and the result is shown in FIG. 4.
as §1, with “SIRT1” for “PGC-1α”, “1-(4),” for “1-(2),”, “10.” for “11.”

atrogin-1 = atrogin-1 mRNA expression (RT-PCR) in TNF-α-treated L6 myotubes; settings: 50 ng/mL TNF-α, 1 or 10 μg/mL, 6 hours
Description: (§2) L6 myoblasts (ATCC), which are muscle cells, were added at 1×10^5 cell/mL to a 6-well plate with 10% FBS (Gibco)-containing DMEM (Hyclone). When the cell density reached approximately 80 to 85%, the medium in the well was removed, the cells were treated with 2% HS (Hyclone)-containing DMEM (Hyclone) to induce myotube differentiation. The differentiation was performed for total of 6 days by replacing the medium and a sample with fresh ones every two days. After differentiation, the 30% ethanol extract of Chrysanthemum prepared in Example 1-(2) was dissolved in DMEM (Hyclone) containing 50 ng/mL tumor necrosis factor alpha (TNF-α; PeproTech, Rocky Hills, N.J., USA) at 1 or 10 μg/mL, and used to treat the cells. After 6 hours, total RNA was isolated with a TRIzol reagent (Takara, Shiga, Japan). The isolated total RNA was quantified using a NanoDrop 1000 (Thermo Fisher Scientific Inc.). cDNA was synthesized from 16 μL of the quantified RNA using a Reverse Transcriptase Premix (ELPIS-Biotech, Daejeon, Korea) and a PCR machine (Gene Amp PCR System 2700; Applied Biosystems, Foster City, Calif., USA) under conditions of 42° C. for 55 minutes and 70° C. for 15 minutes. […]

MuRF-1 = MuRF-1 mRNA expression (RT-PCR) in TNF-α-treated L6 myotubes; settings: 50 ng/mL TNF-α, 1 or 10 μg/mL, 6 hours
Description: as §2

p-mTOR = p-mTOR protein expression (western blot) in TNF-α-treated L6 myotubes; settings: 1 or 10 μg/mL, 24 hours
Description: To confirm the muscle protein expression-increasing activity of a Chrysanthemum extract in L6 myoblasts (ATCC), which are muscle cells, after differentiation by the same method as described in Experimental Example 2, a sample was treated with the 30% ethanol extract of Chrysanthemum prepared in Example 1-(2) at 1 or 10 μg/mL. The samples were treated for 24 hours, and then the cells were dissolved in an NP-40 buffer solution (ELPIS-Biotech) containing a proteinase inhibitor cocktail (Sigma, St. Louis, Mo., USA). The cells dissolved in the buffer solution were transferred to a 1.5 mL tube for centrifugation at 13,000 rpm for 10 minutes, and then only a supernatant was taken. The supernatant obtained previously was quantified by a Bradford method (Bio-Rad Laboratories Inc., Hercules, Calif., USA). The quantified protein was boiled for 5 minutes and isolated by electrophoresis with a 10% SDS-PAGE gel, and then the isolated proteins were transferred to a nitrocellulose membrane. p-mTOR, mTOR, p-4EBP1, 4EBP1, p-P70S6K and P70S6K and an α-tubulin primary antibody were diluted in 2.5% bovine serum albumin (BSA; bioWORLD, Dublin, Ohio, USA) at a ratio of 1:1000, and the proteins which were transferred to a nitrocellulose membrane were reacted at room temperature for 20 hours. […]

MyoD = MyoD mRNA expression (RT-PCR) during L6 myotube differentiation; settings: L6 muscle cells, 10, 20 or 40 μg/mL during differentiation, FIG. 14
Description: (§3) To confirm the muscle differentiation-promoting activity of a Chrysanthemum extract in L6 myoblasts (ATCC), which are muscle cells, the cells were treated with the 30% ethanol extract of Chrysanthemum, prepared in Example 1-(2), at 5, 10 or 20 μg/mL to induced myotube differentiation by the same method as described in Experimental Example 1-(6). RT-PCR was performed with specific primers (Bioneer) by the same method as described in Experimental Example 2, and the result is shown in FIG. 9.
(§4) To confirm muscle protein synthesis-promoting activity by treatment of L6 myoblasts (ATCC), which are muscle cells, with 3,5-dicaffeoylquinic acid, the cells were treated with the 3,5-dicaffeoylquinic acid obtained in Example 2 at 10, 20 or 40 μg/mL, and then mRNA expression levels of MyoD and myogenin were confirmed by the same method as described in Experimental Example 4.

myogenin = myogenin mRNA expression (RT-PCR) during L6 myotube differentiation; settings: L6 muscle cells, 10, 20 or 40 μg/mL during differentiation, FIG. 14
Description: as §3, §4

For `O=C(/C=C/c1ccc(O)c(O)c1)O[C@@H]1CC(O)(C(=O)O)C[C@@H](OC(=O)/C=C/c2ccc(O)c(O)c2)C1O` (stereo partly drawn) [3,5-dicaffeoylquinic acid, (3R,5R)-3,5-bis[[(E)-3-(3,4-dihydroxyphenyl)prop-2-enoyl]oxy]-1,4-dihydroxycyclohexane-1-carboxylic acid], the “expression level of PGC-1α” value (PGC-1α) was “significantly increased”, the “expression level of SIRT1” value (SIRT1) was “significantly increased” and the “mRNA expression level of atrogin-1 increased by TNF-α” value (atrogin-1) was “decreased in a concentration dependent manner”. For the same compound, the “mRNA expression level of MuRF-1 increased by TNF-α” value (MuRF-1) was “decreased in a concentration dependent manner”, the “p-mTOR protein expression level reduced by TNF-α” value (p-mTOR) was “increased in a concentration-dependent manner” and the “mRNA expression level of MyoD” value (MyoD) was “increased in a concentration-dependent manner”. The “mRNA expression level of myogenin” value (myogenin) was “increased in a concentration-dependent manner”.
